Test results: the Deep4Chem optical property database

Assay: photoluminescence quantum yield (fraction); solvent given as SMILES

Structure (SMILES): CC(C)(C)c1cc(-c2c3cc(c(-c4cc(C(C)(C)C)cc(C(C)(C)C)c4)c4ccc([nH]4)c(-c4ccc(Br)cc4)c4nc(c(-c5ccc(Br)cc5)c5ccc2[nH]5)C=C4)N=C3)cc(C(C)(C)C)c1
- photoluminescence quantum yield (in ClCCl): 0.0127

Structure (SMILES): COc1ccc(-c2c3ccccc3c3n2[B-](F)(F)[N+]2=Cc4c5ccccc5c(-c5ccc(OC)cc5)n4[B-](F)(F)[N+]2=C3)cc1
- photoluminescence quantum yield (in CC#N): 0.22
- photoluminescence quantum yield (in CCCCCC): 0.32
- photoluminescence quantum yield (in CN(C)C=O): 0.23
- photoluminescence quantum yield (in Cc1ccccc1): 0.31
- photoluminescence quantum yield (in ClCCl): 0.31

Structure (SMILES): O=Cc1ccc(C=C(c2ccccc2)c2ccccc2)cc1
- photoluminescence quantum yield (in C1CCOC1): 0.039

Structure (SMILES): Cc1cc(C#N)ccc1N1c2ccccc2C(c2ccccc2)(c2ccccc2)c2ccccc21
- photoluminescence quantum yield (in Cc1ccccc1): 0.12

Structure (SMILES): Fc1ccccc1-c1nc2sc3ccccc3c2s1
- photoluminescence quantum yield (in CS(C)=O): 0.64

Structure (SMILES): Nc1ccc2[nH]ncc2c1
- photoluminescence quantum yield (in C1CCCCC1): 0.14
- photoluminescence quantum yield (in CC#N): 0.18
- photoluminescence quantum yield (in CO): 0.37
- photoluminescence quantum yield (in O): 0.57

Structure (SMILES): CCOC(=O)c1ccc(NC(=O)COc2cc3c4c([nH]c3c(C)c2C)C(=O)CCC4)cc1
- photoluminescence quantum yield (in C1COCCO1): 0.031
- photoluminescence quantum yield (in CC#N): 0.131
- photoluminescence quantum yield (in CCO): 0.097
- photoluminescence quantum yield (in CS(C)=O): 0.123
- photoluminescence quantum yield (in O): 0.037
- photoluminescence quantum yield (in c1ccccc1): 0.075

Structure (SMILES): COc1ccc(C#CC2=C3CCc4ccccc4C3=[O+][B-](F)(F)O2)cc1
- photoluminescence quantum yield (in ClCCl): 0.145

Structure (SMILES): CCCCN1C(=O)c2ccc3c4ccc5c6c(cc(Br)c(c7ccc(c2c37)C1=O)c64)C(=O)N(CCCC)C5=O
- photoluminescence quantum yield (in ClCCl): 0.92

Structure (SMILES): c1ccc(-c2nc(-c3ccccc3)nc(-c3ccc(-n4c5ccccc5c5c4c4ccccc4n5-c4ccccc4)cc3)n2)cc1
- photoluminescence quantum yield (in Cc1ccccc1): 0.445

Structure (SMILES): COc1cc2c(cc1-c1ccc(N(C)C)cc1)Cc1c3c(c4c(c1-2)-c1cc(OC)c(-c2ccc(N(C)C)cc2)cc1C4)C(=O)N(CCC(C)C)C3=O
- photoluminescence quantum yield (in C1CCOC1): 0.02

Structure (SMILES): CCCCCCCCn1c(=O)c2cc3c(C#Cc4ccc(N(c5ccccc5)c5ccccc5)cc4)c4cc5c(=O)n(CCCCCCCC)c(=O)c5cc4c(C#Cc4ccc(N(c5ccccc5)c5ccccc5)cc4)c3cc2c1=O
- photoluminescence quantum yield (in ClC(Cl)Cl): 0.53

Structure (SMILES): COc1ccc(/C=C/c2ccccc2)cc1OC
- photoluminescence quantum yield (in C1CCCCC1): 0.06
- photoluminescence quantum yield (in CC#N): 0.035
- photoluminescence quantum yield (in CC(C)O): 0.041
- photoluminescence quantum yield (in CCCCOCCCC): 0.05
- photoluminescence quantum yield (in CCOC(C)=O): 0.046
- photoluminescence quantum yield (in CCOCC): 0.051

Structure (SMILES): O=C1c2ccccc2-c2nc3c(F)c(F)c(F)c(F)c3n21
- photoluminescence quantum yield (in ClCCl): 0.22

Structure (SMILES): N#Cc1ccc(C=C(c2ccccc2)c2ccccc2)cc1
- photoluminescence quantum yield (in C1CCOC1): 0.046

Structure (SMILES): CCC1=C(C)C(=O)n2c1cc1c(C)c(CC)c(C)n1c2=O
- photoluminescence quantum yield (in CO): 0.93
- photoluminescence quantum yield (in CS(C)=O): 0.98
- photoluminescence quantum yield (in ClC(Cl)Cl): 1
- photoluminescence quantum yield (in c1ccccc1): 0.98

Structure (SMILES): COc1ccc(-c2nc(-c3ccccc3)c(N(C)C)[se]2)cc1
- photoluminescence quantum yield (in ClC(Cl)Cl): 0.039

Structure (SMILES): c1ccc(-c2nc(-c3ccccc3)nc(-c3ccc(-c4ccc5c(c4)C4(c6ccccc6-c6ccccc64)c4ccccc4N5c4ccccc4)cc3)n2)cc1
- photoluminescence quantum yield (in c1cc(-c2cccc(-n3c4ccccc4c4ccccc43)c2)cc(-n2c3ccccc3c3ccccc32)c1): 0.82

Structure (SMILES): Cc1cccc2nc3c(=O)[nH]c(=O)[nH]c3nc12
- photoluminescence quantum yield (in C1COCCO1): 0.033
- photoluminescence quantum yield (in CC#N): 0.018
- photoluminescence quantum yield (in CCO): 0.03
- photoluminescence quantum yield (in CO): 0.044
- photoluminescence quantum yield (in ClCCCl): 0.028
- photoluminescence quantum yield (in O): 0.053

Structure (SMILES): O=c1oc2ccc3ccccc3c2nc1-c1ccccc1
- photoluminescence quantum yield (in CC#N): 0.56
- photoluminescence quantum yield (in CCCCCC): 0.12
- photoluminescence quantum yield (in CO): 0.5
- photoluminescence quantum yield (in c1ccccc1): 0.46

Structure (SMILES): CN1/C(=C/C=C(/C=C/c2sc3ccccc3[n+]2C)c2cccc(C(F)(F)F)c2)Sc2ccccc21
- photoluminescence quantum yield (in CCO): 0.12
- photoluminescence quantum yield (in CO): 0.06
- photoluminescence quantum yield (in CS(C)=O): 0.24

Structure (SMILES): CCCCCCc1ccsc1-c1cc2c3cc(-c4sccc4CCCCCC)c4nc(C(F)(F)C(F)(F)C(F)(F)F)nc5c(-c6sccc6CCCCCC)cc(c6cc(-c7sccc7CCCCCC)c7nc(C(F)(F)C(F)(F)C(F)(F)F)nc1c7c26)c3c45
- photoluminescence quantum yield (in C1CCOC1): 0.65

Structure (SMILES): c1ccc(-c2nc(-c3ccccc3)nc(-c3cc(-n4c5ccccc5c5ccccc54)cc(-n4c5ccccc5c5ccccc54)c3)n2)cc1
- photoluminescence quantum yield (in O=P(c1ccccc1)(c1ccccc1)c1ccc2oc3ccc(P(=O)(c4ccccc4)c4ccccc4)cc3c2c1): 0.58

Structure (SMILES): CC(C)c1cccc(C(C)C)c1N1C(=O)c2cccc3c(Oc4ccc(Cl)cc4)ccc(c23)C1=O
- photoluminescence quantum yield (in ClCCl): 0.64

Structure (SMILES): Cc1cc(-c2nc3c4ccccc4c4ccccc4c3n2-c2ccc(C(C)(C)C)cc2)ccc1-c1ccc(-c2c(-c3ccccc3)nc3ccccn23)cc1
- photoluminescence quantum yield (in ClCCl): 0.77

Structure (SMILES): CN(C)c1ccc2nc3c(cc2c1)c(-c1ccccc1)nn3-c1ccccc1
- photoluminescence quantum yield (in C1CCCCC1): 0.84
- photoluminescence quantum yield (in C1CCOC1): 0.62
- photoluminescence quantum yield (in CC#N): 0.57
- photoluminescence quantum yield (in CC(C)=O): 0.58
- photoluminescence quantum yield (in CCCCCl): 0.64
- photoluminescence quantum yield (in CCCCOCCCC): 0.77
- photoluminescence quantum yield (in CN(C)C=O): 0.46

Structure (SMILES): CN(C)c1nc(N)c2nc(C#N)n(Cc3ccccc3)c2n1
- photoluminescence quantum yield (in C1COCCO1): 0.92
- photoluminescence quantum yield (in CC#N): 0.55
- photoluminescence quantum yield (in CO): 0.8
- photoluminescence quantum yield (in ClCCl): 0.95

Structure (SMILES): CCCC1(CCC)c2cc(-c3ccco3)ccc2-c2ccc(-c3ccco3)cc21
- photoluminescence quantum yield (in C1CCCCC1): 0.86

Structure (SMILES): c1ccc(-c2cnc3nn4ccccc4c3n2)cc1
- photoluminescence quantum yield (in C1CCOC1): 0.96

Structure (SMILES): O=C1[C@@H]2[C@H](C(=O)N1c1cccc3cc4ccccc4cc13)[C@H]1C[C@@H]2c2c1c(-c1ccccc1)c1ccccc1c2-c1ccccc1
- photoluminescence quantum yield (in ClC(Cl)Cl): 0.28

Structure (SMILES): CCOC(=O)c1sc(-c2ccc(-c3cc(C4CC4)c(C(=O)OCC)s3)s2)cc1C1CC1
- photoluminescence quantum yield (in ClCCl): 0.21

Structure (SMILES): CCCCn1c2ccccc2c2c1c1c3ccccc3n(CCCC)c1c1c3ccccc3n(CCCC)c21
- photoluminescence quantum yield (in C1CCOC1): 0.19

Structure (SMILES): O=c1cc(-c2ccccc2)oc(-c2ccc(-c3nc4ccccn4c3NC3CCCCC3)cc2)c1
- photoluminescence quantum yield (in ClCCl): 0.028

Structure (SMILES): CNCCCN1c2ccccc2CCc2ccccc21
- photoluminescence quantum yield (in CC#N): 0.009
- photoluminescence quantum yield (in CO): 0.01
- photoluminescence quantum yield (in O): 0.012

Structure (SMILES): CC1=[N+]2C(=C(Oc3ccc4c(c3)CC[C@@H]3[C@@H]4CC[C@]4(C)C(=O)CC[C@@H]34)c3ccc(C)n3[B-]2(F)F)C=C1c1cc2n(c1)[B-](F)(F)[N+]1=CC=CC1=C2c1c(C)cc(C)cc1C
- photoluminescence quantum yield (in C1CCCCC1): 0.52
- photoluminescence quantum yield (in CCOC(C)=O): 0.12

Structure (SMILES): COc1ccc(C2=C/C(=C\c3ccc(C#N)cc3)C(=O)O2)cc1OC
- photoluminescence quantum yield (in C1COCCO1): 0.45

Structure (SMILES): N#C/C(=C\c1ccc(C(F)(F)F)cc1)c1nc(-c2ccc(Cl)cc2)cs1
- photoluminescence quantum yield (in CC#N): 0.057

Structure (SMILES): F[B-]1(F)OC(c2ccc(Br)cc2)=Cc2c3ccccc3cc[n+]21
- photoluminescence quantum yield (in ClC(Cl)Cl): 0.049

Structure (SMILES): c1ccc(-c2nc3sc4cc5c(cc4c3s2)OCO5)cc1
- photoluminescence quantum yield (in CS(C)=O): 0.62

Structure (SMILES): CC1(C)c2cc(/C=C/c3nc(/C=C/c4ccc5c(c4)C(C)(C)c4cc(N(c6ccccc6)c6ccccc6)ccc4-5)nc(/C=C/c4ccc5c(c4)C(C)(C)c4cc(N(c6ccccc6)c6ccccc6)ccc4-5)n3)ccc2-c2ccc(N(c3ccccc3)c3ccccc3)cc21
- photoluminescence quantum yield (in Cc1ccccc1): 0.36

Structure (SMILES): C=Cc1cc2ccc(N(CC)CC)cc2oc1=O
- photoluminescence quantum yield (in CC#N): 0.98

Structure (SMILES): Cc1ccc2c(c1)n(C)c(-c1ccc(-c3ccc(-c4ccc(-c5n(C)c6cc(C)ccc6[n+]5C)cc4)cc3)cc1)[n+]2C
- photoluminescence quantum yield (in O): 0.68

Structure (SMILES): COc1ccc(-c2cc(-c3ccc(N(C)C)cc3)nc(-c3ccccc3)n2)cc1
- photoluminescence quantum yield (in ClC(Cl)Cl): 0.49
